Measured values taken from PMC12171682, “Saarvienin A—A Novel Glycopeptide with Potent Activity against Drug‐Resistant Bacteria” (Angewandte Chemie (International Ed. in English), 2025).
Converted amounts (≈) assume the structure as drawn. Read-outs that look alike come from different tables or passages of the source.

Columns and labels:
S. aureus HG001‐DRSA = conditions: daptomycin-resistant mutant of HG001; broth microdilution, cation-adjusted Mueller-Hinton Broth II, ~4 × 10⁵ CFU/mL, 37 °C, 24 h; mean of three independent biological replicates, each in technical triplicate
E. coli K12 ΔacrB = conditions: broth microdilution, cation-adjusted Mueller-Hinton Broth II, ~4 × 10⁵ CFU/mL, 37 °C, 24 h; mean of three independent biological replicates, each in technical triplicate
[1] = test system: E. faecalis DSM 12956 (VRE, vanB positive); conditions: broth microdilution, cation-adjusted Mueller-Hinton Broth II, ~4 × 10⁵ CFU/mL, 37 °C, 24 h; mean of three independent biological replicates, each in technical triplicate
E. faecalis ATCC 29212 = conditions: broth microdilution, 37 °C, 24 h
E. coli K12 ΔtolC = conditions: broth microdilution, cation-adjusted Mueller-Hinton Broth II, 37 °C, 24 h, mean of three independent biological replicates, each in technical triplicate
S. aureus N315 (MRSA) = conditions: broth microdilution, cation-adjusted Mueller-Hinton Broth II, ~4 × 10⁵ CFU/mL, 37 °C, 24 h; mean of three independent biological replicates, each in technical triplicate
[2] = test system: M. tuberculosis H37Ra ATCC 25177
[3] = test system: E. coli WO153 (AB1157, recJ asmB1, ΔtolC); conditions: broth microdilution, cation-adjusted Mueller-Hinton Broth II, ~4 × 10⁵ CFU/mL, 37 °C, 24 h; mean of three independent biological replicates, each in technical triplicate
[4] = test system: S. aureus DSM 11822 (MDR); conditions: broth microdilution, cation-adjusted Mueller-Hinton Broth II, ~4 × 10⁵ CFU/mL, 37 °C, 24 h; mean of three independent biological replicates, each in technical triplicate
[5] = test system: vancomycin‐resistant E. faecium clinical isolates with reduced susceptibility to daptomycin (n = 26); conditions: broth microdilution, MHB II, daptomycin with 50 µg/mL Ca2+, mean of two independent experiments
[6] = test system: S. aureus Mu50 (MRSA/VISA); conditions: broth microdilution, cation-adjusted Mueller-Hinton Broth II, ~4 × 10⁵ CFU/mL, 37 °C, 24 h; mean of three independent biological replicates, each in technical triplicate
[7] = 26 VRE E. faecium clinical isolates

## CN[C@H](CC(C)C)C(=O)N[C@H]1C(=O)N[C@@H](CC(N)=O)C(=O)N[C@H]2C(=O)N[C@H]3C(=O)N[C@H](C(=O)N[C@H](C(=O)O)c4cc(O)cc(O)c4-c4cc3ccc4O)[C@H](O)c3ccc(c(Cl)c3)Oc3cc2cc(c3O[C@@H]2O[C@H](CO)[C@@H](O)[C@H](O)[C@H]2O[C@H]2C[C@](C)(N)[C@H](O)[C@H](C)O2)Oc2ccc(cc2Cl)[C@H]1O [Vancomycin, vancomycin]
S. aureus HG001‐DRSA
  MIC, S. aureus HG001‐DRSA: 4 µg/mL (≈ 2.76 µM)
E. coli K12 ΔacrB
  MIC, E. coli K12 ΔacrB: >64 µg/mL
[1]
  MIC, E. faecalis DSM 12956 (VRE, vanB positive): 16 µg/mL (≈ 11 µM)
E. faecalis ATCC 29212; cation-adjusted Mueller-Hinton Broth II, ~4 × 10⁵ CFU/mL, mean of three independent biological replicates, each in technical triplicate
  MIC, E. faecalis ATCC29212: 4 µg/mL (≈ 2.76 µM)
E. faecalis ATCC 29212; reference strain in Table S5, MHB II, daptomycin with 50 µg/mL Ca2+, mean of two independent experiments
  MIC, E. faecalis ATCC29212: 4 µg/mL (≈ 2.76 µM)
E. coli K12 ΔtolC; co‐incubated with sub‐lethal concentrations of polymyxin B nonapeptide (PMBN)
  MIC, E. coli K12 ΔtolC (tolC‐deficient) + PMBN: >64 µg/mL
E. coli K12 ΔtolC; without PMBN, ~4 × 10⁵ CFU/mL
  MIC, E. coli K12 ΔtolC: >64 µg/mL
S. aureus N315 (MRSA)
  MIC, S. aureus N315 (MRSA): 2 µg/mL (≈ 1.38 µM)
[2]
  MIC, M. tuberculosis H37Ra ATCC 25177: 64 µg/mL (≈ 44.2 µM)
[3]
  MIC, E. coli WO153 (AB1157, recJ asmB1, ΔtolC): 32 µg/mL (≈ 22.1 µM)
[4]
  MIC, S. aureus DSM 11822 (MDR): 1 µg/mL (≈ 0.69 µM)
[5]; [7]
  MIC50: >64 µg/mL
  MIC90: >64 µg/mL
[5]; clinical isolate 1, 37 °C, 24 h
  MIC, Enterococcus faecium isolate 1: > 64 µg/mL
[5]; clinical isolate 2, 37 °C, 24 h
  MIC, Enterococcus faecium isolate 2: > 64 µg/mL
[5]; clinical isolate 3, 37 °C, 24 h
  MIC, Enterococcus faecium isolate 3: 64 µg/mL (≈ 44.2 µM)
[5]; clinical isolate 4, 37 °C, 24 h
  MIC, Enterococcus faecium isolate 4: > 64 µg/mL
[5]; clinical isolate 5, 37 °C, 24 h
  MIC, Enterococcus faecium isolate 5: > 64 µg/mL
[5]; clinical isolate 6, 37 °C, 24 h
  MIC, Enterococcus faecium isolate 6: > 64 µg/mL
[5]; clinical isolate 7, 37 °C, 24 h
  MIC, Enterococcus faecium isolate 7: > 64 µg/mL
[5]; clinical isolate 8, 37 °C, 24 h
  MIC, Enterococcus faecium isolate 8: > 64 µg/mL
[5]; clinical isolate 9, 37 °C, 24 h
  MIC, Enterococcus faecium isolate 9: > 64 µg/mL
[5]; clinical isolate 10, 37 °C, 24 h
  MIC, Enterococcus faecium isolate 10: > 64 µg/mL
[5]; clinical isolate 11, 37 °C, 24 h
  MIC, Enterococcus faecium isolate 11: > 64 µg/mL
[5]; clinical isolate 12, 37 °C, 24 h
  MIC, Enterococcus faecium isolate 12: > 64 µg/mL
[5]; clinical isolate 13, 37 °C, 24 h
  MIC, Enterococcus faecium isolate 13: > 64 µg/mL
[5]; clinical isolate 14, 37 °C, 24 h
  MIC, Enterococcus faecium isolate 14: > 64 µg/mL
[5]; clinical isolate 15, 37 °C, 24 h
  MIC, Enterococcus faecium isolate 15: > 64 µg/mL
[5]; clinical isolate 16, 37 °C, 24 h
  MIC, Enterococcus faecium isolate 16: > 64 µg/mL
[5]; clinical isolate 17, 37 °C, 24 h
  MIC, Enterococcus faecium isolate 17: > 64 µg/mL
[5]; clinical isolate 18, 37 °C, 24 h
  MIC, Enterococcus faecium isolate 18: > 64 µg/mL
[5]; clinical isolate 19, 37 °C, 24 h
  MIC, Enterococcus faecium isolate 19: > 64 µg/mL
[5]; clinical isolate 20, 37 °C, 24 h
  MIC, Enterococcus faecium isolate 20: > 64 µg/mL
[5]; clinical isolate 21, 37 °C, 24 h
  MIC, Enterococcus faecium isolate 21: > 64 µg/mL
[5]; clinical isolate 22, 37 °C, 24 h
  MIC, Enterococcus faecium isolate 22: > 64 µg/mL
[5]; clinical isolate 23, 37 °C, 24 h
  MIC, Enterococcus faecium isolate 23: > 64 µg/mL
[5]; clinical isolate 24, 37 °C, 24 h
  MIC, Enterococcus faecium isolate 24: > 64 µg/mL
[5]; clinical isolate 25, 37 °C, 24 h
  MIC, Enterococcus faecium isolate 25: > 64 µg/mL
[5]; clinical isolate 26, 37 °C, 24 h
  MIC, Enterococcus faecium isolate 26: > 64 µg/mL
[6]
  MIC, S. aureus Mu50 (MRSA/VISA): 8 µg/mL (≈ 5.52 µM)
